Assay results reported in paper PMC3632407 (Chemical communications (Cambridge, England), 2013).
Where two headings read alike, the source gives them in different places. Where a SMILES comes first, the peptide text is derived from it.

How the values were obtained:
Assay type in all cases: cell-based
[1] = tested on: P. aeruginosa
[2] = tested on: E.coli
[3] = tested on: MRSA
[4] = tested on: E. faecium
[5] = tested on: K. pneumoniae
[6] = tested on: S. nterica; assay: Minimal inhibitory concentration for bacteriocidal activity; details: MIC; strains in Supp. Info
[7] = tested on: A. baumanii

With `N=C(N)NCCC[C@H](NC(=O)[C@H](CS)NC(=O)[C@H](Cc1ccc(O)cc1)NC(=O)[C@H](Cc1c[nH]c2ccccc12)NC(=O)[C@H](CCCNC(=N)N)NC(=O)[C@@H](N)Cc1c[nH]c2ccccc12)C(N)=O` [Complex 1, WRWYCR-NH2] (H-WRWYCR-NH2) the “Minimal inhibitory concentration for bacteriocidal activity, P. aeruginosa” value [1] was 33 µM, the “Minimal inhibitory concentration for bacteriocidal activity, E.coli” value [2] was 17 µM and the “Minimal inhibitory concentration for bacteriocidal activity, MRSA” value [3] was 66 µM. For the same molecule, the “Minimal inhibitory concentration for bacteriocidal activity, E. faecium” value [4] was 8 µM, the “Minimal inhibitory concentration for bacteriocidal activity, K. pneumoniae” value [5] was 66 µM and the “Minimal inhibitory concentration for bacteriocidal activity, S. nterica” value [6] was 8 µM. For the same molecule, the “Minimal inhibitory concentration for bacteriocidal activity, A. baumanii” value [7] was 132 µM.
With `NC[C@H]1O[C@H](O[C@H]2[C@H](O)[C@@H](O[C@H]3O[C@H](CO)[C@@H](O)[C@H](N)[C@H]3O)[C@H](N)C[C@@H]2N)[C@H](O)[C@@H](O)[C@@H]1O` [kanamycin] the “Minimal inhibitory concentration for bacteriocidal activity, P. aeruginosa” value ([1]; MIC, strains in Supp. Info) was 33 µM, the “Minimal inhibitory concentration for bacteriocidal activity, E.coli” value ([2]; MIC, strains in Supp. Info) was 8 µM and the “Minimal inhibitory concentration for bacteriocidal activity, MRSA” value ([3]; MIC, strains in Supp. Info) was 264 µM. The “Minimal inhibitory concentration for bacteriocidal activity, E. faecium” value ([4]; MIC, strains in Supp. Info) was over 264 µM, the “Minimal inhibitory concentration for bacteriocidal activity, K. pneumoniae” value ([5]; MIC, strains in Supp. Info) was 66 µM and the “Minimal inhibitory concentration for bacteriocidal activity, S. nterica” value [6] was 1 µM. For the same molecule, the “Minimal inhibitory concentration for bacteriocidal activity, A. baumanii” value ([7]; MIC, strains in Supp. Info) was over 264 µM.
